Assay [1] has as its target T1, human recombinant ALDH1a1 (Homo sapiens, UniProt P00352).
T1 sequence (P00352 1-501): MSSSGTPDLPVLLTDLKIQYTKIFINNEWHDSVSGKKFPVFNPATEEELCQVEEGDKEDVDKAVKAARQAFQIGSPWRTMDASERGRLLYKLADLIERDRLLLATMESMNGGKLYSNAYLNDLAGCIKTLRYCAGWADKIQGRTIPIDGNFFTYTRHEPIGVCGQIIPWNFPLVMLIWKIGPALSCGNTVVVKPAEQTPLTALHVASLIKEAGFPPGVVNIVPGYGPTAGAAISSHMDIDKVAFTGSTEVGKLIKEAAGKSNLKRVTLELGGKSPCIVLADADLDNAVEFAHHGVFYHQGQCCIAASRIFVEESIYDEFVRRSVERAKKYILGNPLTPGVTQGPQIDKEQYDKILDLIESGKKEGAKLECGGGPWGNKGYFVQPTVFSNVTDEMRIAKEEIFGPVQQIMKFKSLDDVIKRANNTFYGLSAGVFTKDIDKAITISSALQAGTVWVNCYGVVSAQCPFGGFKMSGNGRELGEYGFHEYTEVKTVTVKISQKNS
Briefly: ALDH enzyme inhibition assay (ALDH1a1), diaphorase/resorufin fluorescence. It counts as biochemical. As to conditions: for IC50: read-out: IC50 (µM) ± SE (ALDH1a1); for fold reduction of ALDH1a1 inhibitory activity: relative to compound (2). As to the method:
(§1) The inhibitory activity of the thiuram disulfide (4) was evaluated in vitro against human recombinant ALDH1a1 and ALDH2, as shown in Figure 3 and Table 1.
(§2) All tested compounds were prepared as 100 mM stock solutions in DMSO. […] Five µL of desalted enzyme […] Five µL of reaction buffer were also added to the “no enzyme” background control wells. The test compounds were added to the assay wells. The reaction plate was then centrifuged briefly at 1200 rpm, then incubated for 20 min at RT. […] The reaction plate was briefly centrifuged and incubated at RT for 60 min. Ten µL of detection reagent composed of 15 µg/mL diaphorase and […] were added. The reaction plate was briefly centrifuged and incubated for a further 10 min at RT in the dark.

The target of assay [2] is T2, human recombinant ALDH2 (Homo sapiens, UniProt P05091).
T2 sequence (P05091 18-517): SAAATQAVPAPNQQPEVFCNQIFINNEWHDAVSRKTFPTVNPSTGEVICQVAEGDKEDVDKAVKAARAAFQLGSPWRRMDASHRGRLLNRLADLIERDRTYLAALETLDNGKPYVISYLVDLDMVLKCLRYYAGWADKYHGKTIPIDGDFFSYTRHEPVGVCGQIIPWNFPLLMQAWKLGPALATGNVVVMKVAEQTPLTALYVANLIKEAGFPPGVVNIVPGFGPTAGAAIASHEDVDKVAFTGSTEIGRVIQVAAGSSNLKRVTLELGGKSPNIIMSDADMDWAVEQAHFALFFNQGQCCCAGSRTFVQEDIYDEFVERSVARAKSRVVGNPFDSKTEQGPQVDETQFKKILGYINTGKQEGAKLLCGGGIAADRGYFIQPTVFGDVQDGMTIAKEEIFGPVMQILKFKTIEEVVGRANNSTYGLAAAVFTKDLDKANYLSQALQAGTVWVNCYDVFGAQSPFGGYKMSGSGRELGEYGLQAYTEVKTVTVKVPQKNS
As to the kind of experiment: ALDH enzyme inhibition assay (ALDH2), diaphorase/resorufin fluorescence. Format: biochemical. Particulars: average of at least two experiments ± standard error; 100 µM acetaldehyde, 500 µM NAD+; 20 min preincubation; NI = no inhibition up to 0.5 mM; read-out: IC50 (µM) ± SE (ALDH2). On the procedure: as §1, §2

The target of assay [3] is T2, human recombinant ALDH2. As to conditions: previously reported; cited from earlier work.
Where [4] appears, read: average of at least two experiments ± standard error, 250 µM acetaldehyde, 500 µM NAD+, 20 min preincubation, NI = no inhibition up to 0.5 mM.

Molecules are shown by their SMILES.

A word on the IC50: it is the concentration that inhibits the measured activity by half.

On to `CCN(Cc1ccncc1)C(=S)SSC(=S)N(CC)Cc1ccncc1` [Compound 4f, bis(N-(4-pyridylmethyl)ethylthiocarbamoyl)disulphide], for which the half-maximal inhibitory concentration (IC50) in assay [1] (setting [4]) is 5.76 ± 4.01 µM; in assay [2], above 500 µM. Also, the “fold reduction of ALDH1a1 inhibitory activity” value in assay [1] is reported as “more than 33 fold”.

Consider `CCN(Cc1ccco1)C(=S)SSC(=S)N(CC)Cc1ccco1` [Compound 4g, bis(N-(2-furylmethyl)ethylthiocarbamoyl)disulphide], for which the IC50 was 0.39 ± 0.27 µM in assay [1] (setting [4]) and 200 µM in assay [2].

With `CCN(Cc1ccsc1)C(=S)SSC(=S)N(CC)Cc1ccsc1` [Compound 4i, bis(N-(3-thienylmethyl)ethylthiocarbamoyl)disulphide], the concentration for half-maximal inhibition (IC50) in assay [1] (setting [4]) is 0.17 ± 0.1 µM; in assay [2] it was above 500 µM.

`CCN(Cc1ccc(OC)cc1)C(=S)SSC(=S)N(CC)Cc1ccc(OC)cc1` [Compound 4e]: the IC50 is 0.58 ± 0.41 µM in assay [1] (setting [4]) and above 500 µM in assay [2].

For `CCN(Cc1cccs1)C(=S)SSC(=S)N(CC)Cc1cccs1` [Compound 4h, bis(N-(2-thienylmethyl)ethylthiocarbamoyl)disulphide], the IC50 in assay [1] (setting [4]) is 0.39 ± 0.31 µM; in assay [2], above 500 µM.

With `CCN(Cc1cccc(F)c1)C(=S)SSC(=S)N(CC)Cc1cccc(F)c1` [Compound 4a, bis(N-3-Fluorobenzylethylthiocarbamoyl)disulphide], the values for the IC50 in assay [1] (setting [4]) and in assay [2] were 0.31 ± 0.14 µM and above 500 µM, respectively. Besides, in assay [1], the “fold reduction of ALDH1a1 inhibitory activity” value is listed as 2 fold.

Regarding `CCN(Cc1ccc(C(F)(F)F)cc1)C(=S)SSC(=S)N(CC)Cc1ccc(C(F)(F)F)cc1` [Compound 4d, bis(N-4-trifluoromethylbenzylethylthiocarbamoyl)disulphide], in assay [1] (setting [4]), the “IC50 (µM) ± SE (ALDH1a1)” value is “completely inactive” and the concentration for half-maximal inhibition (IC50) is above 500 µM. Moreover, in assay [2], the IC50 was above 500 µM.

With `CCN(Cc1ccc(F)cc1)C(=S)SSC(=S)N(CC)Cc1ccc(F)cc1` [Compound 2], the IC50 in assay [1] (setting [4]) was 0.17 ± 0.06 µM; in assay [2] it was above 500 µM. In addition, the “IC50 against ALDH2” value in assay [3] is “no inhibition”.

For `CCN(Cc1ccc(Cl)cc1)C(=S)SSC(=S)N(CC)Cc1ccc(Cl)cc1` [Compound 4c, bis(N-4-Chlorobenzylethylthiocarbamoyl)disulphide], the figures for the half-inhibitory concentration (IC50) in assay [1] (setting [4]) and in assay [2] were 0.86 ± 0.68 µM and above 500 µM, respectively. Besides, the “fold reduction of ALDH1a1 inhibitory activity” value in assay [1] was “five”.

As to `CCN(Cc1ccccc1F)C(=S)SSC(=S)N(CC)Cc1ccccc1F` [Compound 4b, bis(N-2-Fluorobenzylethylthiocarbamoyl)disulphide], the results for the 50% inhibitory concentration (IC50) in assay [1] (setting [4]) and in assay [2] were 0.59 ± 0.46 µM and above 500 µM, respectively. In addition, the “fold reduction of ALDH1a1 inhibitory activity” value in assay [1] was found to be 3.5 fold.

These data come from PMC8778300 (Molecules, 2022).
